# From publication PMC10682951, “Structure-function and rational design of a spider toxin Ssp1a at human voltage-gated sodium channel subtypes” (Frontiers in Pharmacology, 2023)
# Bridge positions count the residues as written; N and C are the ends. Peptide text beside a SMILES is read from it.
# What was measured:
# Assay type in all cases: cell-based
# [1] = target: T1, hNaV1.7 (Homo sapiens, UniProt Q15858); assay: Automated whole-cell patch-clamp (QPatch 16X), hNaV1.7; settings: for IC50: HEK293 cells expressing hNaV1.7 + β1 subunit, QPatch 16X, holding −80 mV, step to 0 mV, peptide incubated 2 min, 0.1% BSA, mean, SEM and n (3-9)
# T1 construct: host or cells: HEK293
# Procedure: (§1) Human embryonic kidney 293 (HEK293) cells stably expressing recombinant hNaV1.2, hNaV1.3 and hNaV1.7 and the β1 auxiliary subunit (Scottish Biomedical Drug Discovery, Glasgow, UK) were cultured in Minimal Essential medium (MEM) (Sigma-Aldrich, MO, United States) supplemented with 10% v/v FBS-New Zealand origin (Assay Matrix), 2 mM L-glutamine and selection antibiotics as per manufacturer’s recommendation. The HEK293 cells heterologously expressing mNaV1.7 and F813G-mNaV1.7 were generously provided by Prof Irina Vetter and were cultured in Minimal Essential medium (MEM) (Sigma-Aldrich, MO, United States) supplemented with 10% v/v FBS-New Zealand origin (Assay Matrix), 2 mM L-glutamine and hygromycin 100 μg/mL.
# (§2) NaV channel currents from HEK293 cells stably expressing NaV subtypes and the β1 auxiliary subunit were recorded using an automated whole-cell patch clamp system QPatch 16X (Sophion Bioscience A/S, Ballerup, Denmark). As per the manufacturer’s guidelines, the cells were cultured for 48 h to achieve ∼80% confluency, detached using Detachin (Genlantis) and resuspended to 5 × 10^6 cells/mL in serum free media [CHO-cell SFM (Life Technologies), 25 mM HEPES and 100 U/mL penicillin/streptomycin]. The extracellular solution comprised (in mM) 1 CaCl2, 1 MgCl2, 5 HEPES, 3 KCl, 140 NaCl and 20 TEA-Cl, with the pH adjusted to 7.3 with NaOH. The intracellular solution comprised (in mM) 140 CsF, 1 EGTA, 5 CsOH, 10 HEPES and 10 NaCl, with the pH adjusted to 7.3 with CsOH. The osmolarity of both solutions were adjusted to 320 mOsm with sucrose. Compounds were prepared in extracellular solution containing 0.1% bovine serum albumin (Sigma-Aldrich). To obtain the dose-response curves, cells were maintained at a holding potential −80 mV and Na^+ currents were elicited by […] voltage steps to 0 mV from a −120 mV conditioning pulse applied for […]. Increasing concentrations of the peptide were incubated with the cells at the holding potential for 2 min before the voltage protocol was applied.
# (§3) The experimental data were analysed using QPatch Assay software v5.6.4 and GraphPad Prism 7.0 using a four-parameter Hill equation [Y = Bottom + (Top—Bottom)/(1 + 10^(Log IC50—X)* Hillslope)] to fit concentration response curves by non-linear regression analysis and Student’s t-test. Data are presented as means ± standard error of mean (SEM) with number of independent experiments stated and p < 0.05 is considered statistically significant. Statistically insignificant shift in the activity is denoted by “little” while small but statistically significant shift in the activity is denoted by “slight” throughout the manuscript.
# [2] = target: T2, hNaV1.3 (Homo sapiens, UniProt Q9NY46); assay: Automated whole-cell patch-clamp (QPatch 16X), hNaV1.3; settings: HEK293 cells expressing hNaV1.3 + β1 subunit; QPatch 16X; holding −80 mV, step to 0 mV; peptide incubated 2 min; 0.1% BSA; mean, SEM and n (3-12)
# T2 construct: host or cells: HEK293
# T2 sequence (Q9NY46 whole entry): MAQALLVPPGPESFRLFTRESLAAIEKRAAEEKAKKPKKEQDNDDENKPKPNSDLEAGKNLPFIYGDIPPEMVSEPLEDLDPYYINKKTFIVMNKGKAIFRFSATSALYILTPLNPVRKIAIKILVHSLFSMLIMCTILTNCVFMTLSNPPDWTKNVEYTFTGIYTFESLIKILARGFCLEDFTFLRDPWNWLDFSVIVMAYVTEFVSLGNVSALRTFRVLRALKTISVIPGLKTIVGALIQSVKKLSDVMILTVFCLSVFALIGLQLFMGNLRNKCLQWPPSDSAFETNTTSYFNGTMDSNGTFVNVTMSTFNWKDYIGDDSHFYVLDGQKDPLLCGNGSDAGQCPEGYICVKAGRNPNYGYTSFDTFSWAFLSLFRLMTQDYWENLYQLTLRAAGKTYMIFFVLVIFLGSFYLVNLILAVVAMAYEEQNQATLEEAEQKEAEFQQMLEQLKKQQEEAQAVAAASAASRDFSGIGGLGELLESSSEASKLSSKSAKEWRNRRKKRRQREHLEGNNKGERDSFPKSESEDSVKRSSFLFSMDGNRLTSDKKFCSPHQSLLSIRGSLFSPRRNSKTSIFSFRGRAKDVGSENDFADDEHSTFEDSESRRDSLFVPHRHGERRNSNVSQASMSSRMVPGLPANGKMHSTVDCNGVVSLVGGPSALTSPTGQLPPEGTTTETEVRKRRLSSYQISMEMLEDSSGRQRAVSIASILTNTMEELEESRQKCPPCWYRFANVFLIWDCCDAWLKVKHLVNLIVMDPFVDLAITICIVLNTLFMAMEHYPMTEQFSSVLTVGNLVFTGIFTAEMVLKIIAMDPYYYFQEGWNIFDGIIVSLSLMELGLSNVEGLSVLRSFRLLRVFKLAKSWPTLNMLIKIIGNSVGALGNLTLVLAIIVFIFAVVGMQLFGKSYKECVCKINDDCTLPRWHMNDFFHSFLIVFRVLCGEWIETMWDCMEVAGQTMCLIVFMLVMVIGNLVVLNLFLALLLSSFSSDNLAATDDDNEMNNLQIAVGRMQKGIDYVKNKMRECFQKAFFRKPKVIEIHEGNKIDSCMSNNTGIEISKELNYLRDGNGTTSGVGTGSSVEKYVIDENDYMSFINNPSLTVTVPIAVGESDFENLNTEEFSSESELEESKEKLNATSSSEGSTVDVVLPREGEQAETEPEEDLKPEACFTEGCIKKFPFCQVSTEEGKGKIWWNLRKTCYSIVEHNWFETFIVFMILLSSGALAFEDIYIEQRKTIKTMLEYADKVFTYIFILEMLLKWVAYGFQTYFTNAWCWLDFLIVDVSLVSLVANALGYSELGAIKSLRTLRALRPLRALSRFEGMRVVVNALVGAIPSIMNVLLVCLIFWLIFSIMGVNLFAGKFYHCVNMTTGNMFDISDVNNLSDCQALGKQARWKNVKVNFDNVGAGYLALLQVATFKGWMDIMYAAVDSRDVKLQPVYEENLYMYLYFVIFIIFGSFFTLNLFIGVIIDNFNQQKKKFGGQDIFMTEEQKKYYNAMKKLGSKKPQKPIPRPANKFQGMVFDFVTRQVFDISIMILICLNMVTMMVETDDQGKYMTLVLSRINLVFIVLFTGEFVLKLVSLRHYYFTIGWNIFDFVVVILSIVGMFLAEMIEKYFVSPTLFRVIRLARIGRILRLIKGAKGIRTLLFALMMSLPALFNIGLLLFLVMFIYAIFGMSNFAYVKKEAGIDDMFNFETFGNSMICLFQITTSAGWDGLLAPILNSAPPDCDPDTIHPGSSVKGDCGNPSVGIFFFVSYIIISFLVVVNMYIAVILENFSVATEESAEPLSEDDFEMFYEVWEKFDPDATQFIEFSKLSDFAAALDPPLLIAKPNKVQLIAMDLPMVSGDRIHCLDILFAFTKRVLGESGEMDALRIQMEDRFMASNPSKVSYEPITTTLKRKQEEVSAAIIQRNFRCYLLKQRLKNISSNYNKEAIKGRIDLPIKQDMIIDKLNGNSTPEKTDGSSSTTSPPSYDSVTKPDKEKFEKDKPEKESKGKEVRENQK
# T2 sequence (Q07699 19-218, further chain): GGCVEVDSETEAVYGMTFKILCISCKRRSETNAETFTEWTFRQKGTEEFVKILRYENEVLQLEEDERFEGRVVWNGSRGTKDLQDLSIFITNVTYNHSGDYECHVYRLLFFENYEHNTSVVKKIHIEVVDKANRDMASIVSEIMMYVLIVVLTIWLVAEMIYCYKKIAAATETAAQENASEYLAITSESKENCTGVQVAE
# Procedure: as §1, §2, §3
# [3] = target: T3, hNaV1.2 (Homo sapiens, UniProt Q99250); assay: Automated whole-cell patch-clamp (QPatch 16X), hNaV1.2; settings: for IC50: HEK293 cells expressing hNaV1.2 + β1 subunit, QPatch 16X, holding −80 mV, step to 0 mV, peptide incubated 2 min, 0.1% BSA, mean, SEM and n (2-7)
# T3 construct: host or cells: HEK293
# T3 sequence (Q07699 19-218): as the sequence (Q07699 19-218, further chain) above
# T3 sequence (Q99250 whole entry): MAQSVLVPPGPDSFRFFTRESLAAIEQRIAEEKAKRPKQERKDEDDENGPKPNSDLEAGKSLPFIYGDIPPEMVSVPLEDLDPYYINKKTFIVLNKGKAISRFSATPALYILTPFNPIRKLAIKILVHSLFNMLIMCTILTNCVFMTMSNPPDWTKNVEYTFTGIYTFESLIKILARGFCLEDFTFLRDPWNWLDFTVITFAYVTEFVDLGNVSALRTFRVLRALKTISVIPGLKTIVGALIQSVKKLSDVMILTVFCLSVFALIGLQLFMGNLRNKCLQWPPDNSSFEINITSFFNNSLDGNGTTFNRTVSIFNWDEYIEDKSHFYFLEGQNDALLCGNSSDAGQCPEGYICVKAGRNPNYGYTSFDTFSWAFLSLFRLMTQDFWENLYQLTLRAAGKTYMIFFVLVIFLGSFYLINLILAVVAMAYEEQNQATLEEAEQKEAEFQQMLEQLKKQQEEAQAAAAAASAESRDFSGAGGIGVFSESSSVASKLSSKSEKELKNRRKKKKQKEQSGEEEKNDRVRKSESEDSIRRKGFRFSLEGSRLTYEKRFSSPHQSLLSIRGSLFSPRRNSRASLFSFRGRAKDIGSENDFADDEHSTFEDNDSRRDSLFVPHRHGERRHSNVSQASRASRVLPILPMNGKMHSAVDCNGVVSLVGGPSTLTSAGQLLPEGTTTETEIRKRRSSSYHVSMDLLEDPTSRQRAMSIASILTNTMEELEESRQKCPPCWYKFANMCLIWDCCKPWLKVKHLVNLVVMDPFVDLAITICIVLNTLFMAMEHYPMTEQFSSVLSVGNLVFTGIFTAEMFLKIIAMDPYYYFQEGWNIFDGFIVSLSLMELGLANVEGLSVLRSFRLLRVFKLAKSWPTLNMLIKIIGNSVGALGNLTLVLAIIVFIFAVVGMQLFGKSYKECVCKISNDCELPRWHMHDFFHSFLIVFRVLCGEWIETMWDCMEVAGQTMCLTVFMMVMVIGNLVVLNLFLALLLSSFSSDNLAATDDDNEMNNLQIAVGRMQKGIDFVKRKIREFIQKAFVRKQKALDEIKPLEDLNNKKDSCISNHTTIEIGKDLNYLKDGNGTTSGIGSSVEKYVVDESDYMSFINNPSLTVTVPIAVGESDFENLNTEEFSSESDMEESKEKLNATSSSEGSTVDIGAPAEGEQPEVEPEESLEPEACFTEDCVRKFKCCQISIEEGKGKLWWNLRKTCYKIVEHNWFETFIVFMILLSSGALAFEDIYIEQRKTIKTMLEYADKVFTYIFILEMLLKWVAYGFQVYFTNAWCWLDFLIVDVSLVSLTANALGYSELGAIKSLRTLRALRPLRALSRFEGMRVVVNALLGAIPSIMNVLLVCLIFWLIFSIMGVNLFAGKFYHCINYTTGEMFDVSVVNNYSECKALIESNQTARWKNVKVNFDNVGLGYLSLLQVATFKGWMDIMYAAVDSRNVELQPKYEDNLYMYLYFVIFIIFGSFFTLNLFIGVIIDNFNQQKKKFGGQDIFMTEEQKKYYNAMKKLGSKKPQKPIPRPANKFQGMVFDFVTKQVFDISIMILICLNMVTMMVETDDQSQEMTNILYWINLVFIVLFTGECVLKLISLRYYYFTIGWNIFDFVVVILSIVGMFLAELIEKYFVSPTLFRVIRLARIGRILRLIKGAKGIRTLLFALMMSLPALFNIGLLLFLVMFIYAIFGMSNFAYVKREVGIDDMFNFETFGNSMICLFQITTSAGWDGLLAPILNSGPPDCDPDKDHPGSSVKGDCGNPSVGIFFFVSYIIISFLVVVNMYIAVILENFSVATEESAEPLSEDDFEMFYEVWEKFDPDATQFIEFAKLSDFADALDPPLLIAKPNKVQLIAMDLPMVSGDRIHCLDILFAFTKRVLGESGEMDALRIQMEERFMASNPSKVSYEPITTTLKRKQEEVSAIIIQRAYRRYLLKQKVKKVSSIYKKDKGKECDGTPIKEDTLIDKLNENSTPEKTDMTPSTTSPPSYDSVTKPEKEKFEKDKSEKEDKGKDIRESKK
# Procedure: as §1, §2, §3
Compound,IC50 [1] [µM],IC50 [2] [µM],IC50 [3] [µM],Loss (reduction) in potency vs rSsp1a at hNaV1.7 ([1]; relative to wild type rSsp1a) [fold],Loss (reduction) in potency vs rSsp1a at hNaV1.2 ([3]; relative to wild type rSsp1a) [fold]
CC(C)C[C@H](NC(=O)[C@H](CC(=O)O)NC(=O)[C@H](Cc1ccc(O)cc1)NC(=O)[C@H](CCCNC(=N)N)NC(=O)[C@@H]1CSSC[C@@H]2NC(=O)[C@H](CCCCN)NC(=O)[C@H](CC(N)=O)NC(=O)[C@H](CC(N)=O)NC(=O)[C@H](CC(N)=O)NC(=O)[C@@H]3CCCN3C(=O)[C@H](CC(=O)O)NC(=O)[C@@H]3CSSC[C@H](NC(=O)[C@H](C(C)C)NC(=O)[C@H](Cc4ccc(O)cc4)NC(=O)CNC(=O)[C@H](CCCCN)NC(=O)[C@H](CSSC[C@H](NC(=O)[C@H](CC(=O)O)NC(=O)CN)C(=O)N[C@@H](CC(C)C)C(=O)NCC(=O)N[C@@H](Cc4c[nH]c5ccccc45)C(=O)N[C@@H](Cc4ccccc4)C(=O)N[C@@H](CO)C(=O)NCC(=O)N3)NC2=O)C(=O)N[C@@H](Cc2c[nH]cn2)C(=O)N[C@@H](Cc2c[nH]c3ccccc23)C(=O)N[C@@H](CCCCN)C(=O)N[C@@H](Cc2ccc(O)cc2)C(=O)N2CCC[C@H]2C(=O)N[C@@H](Cc2c[nH]c3ccccc23)C(=O)N1)C(=O)O [E18K],0.107,0.313,0.072,,
CC(C)C[C@H](NC(=O)[C@H](CC(=O)O)NC(=O)[C@H](Cc1ccc(O)cc1)NC(=O)[C@H](CCCNC(=N)N)NC(=O)[C@@H]1CSSC[C@@H]2NC(=O)[C@H](CCCCN)NC(=O)[C@H](C)NC(=O)[C@H](CC(N)=O)NC(=O)[C@H](CC(N)=O)NC(=O)[C@@H]3CCCN3C(=O)[C@H](CC(=O)O)NC(=O)[C@@H]3CSSC[C@H](NC(=O)[C@H](C(C)C)NC(=O)[C@H](Cc4ccc(O)cc4)NC(=O)CNC(=O)[C@H](CCC(=O)O)NC(=O)[C@H](CSSC[C@H](NC(=O)[C@H](CC(=O)O)NC(=O)CN)C(=O)N[C@@H](CC(C)C)C(=O)NCC(=O)N[C@@H](Cc4c[nH]c5ccccc45)C(=O)N[C@@H](Cc4ccccc4)C(=O)N[C@@H](CO)C(=O)NCC(=O)N3)NC2=O)C(=O)N[C@@H](Cc2c[nH]cn2)C(=O)N[C@@H](Cc2c[nH]c3ccccc23)C(=O)N[C@@H](CCCCN)C(=O)N[C@@H](Cc2ccc(O)cc2)C(=O)N2CCC[C@H]2C(=O)N[C@@H](Cc2c[nH]c3ccccc23)C(=O)N1)C(=O)O [N14A],0.252,0.784,0.224,,
CC(C)C[C@H](NC(=O)[C@H](CO)NC(=O)[C@H](Cc1ccc(O)cc1)NC(=O)[C@H](CCCNC(=N)N)NC(=O)[C@@H]1CSSC[C@@H]2NC(=O)[C@H](CCCCN)NC(=O)[C@H](CC(N)=O)NC(=O)[C@H](CC(N)=O)NC(=O)[C@H](CC(N)=O)NC(=O)[C@@H]3CCCN3C(=O)[C@H](CC(=O)O)NC(=O)[C@@H]3CSSC[C@H](NC(=O)[C@H](C(C)C)NC(=O)[C@H](Cc4ccc(O)cc4)NC(=O)CNC(=O)[C@H](CCC(=O)O)NC(=O)[C@H](CSSC[C@H](NC(=O)[C@H](CC(=O)O)NC(=O)CN)C(=O)N[C@@H](CC(C)C)C(=O)NCC(=O)N[C@@H](Cc4c[nH]c5ccccc45)C(=O)N[C@@H](Cc4ccccc4)C(=O)N[C@@H](CO)C(=O)NCC(=O)N3)NC2=O)C(=O)N[C@@H](Cc2c[nH]cn2)C(=O)N[C@@H](Cc2c[nH]c3ccccc23)C(=O)N[C@@H](CCCCN)C(=O)N[C@@H](Cc2ccc(O)cc2)C(=O)N2CCC[C@H]2C(=O)N[C@@H](Cc2c[nH]c3ccccc23)C(=O)N1)C(=O)O [D32S],0.101,0.137,0.097,,
"CC(C)C[C@H](NC(=O)[C@H](CC(=O)O)NC(=O)[C@H](Cc1ccc(O)cc1)NC(=O)[C@H](CCCNC(=N)N)NC(=O)[C@@H]1CSSC[C@@H]2NC(=O)[C@H](CCCCN)NC(=O)[C@H](CC(N)=O)NC(=O)[C@H](CC(N)=O)NC(=O)[C@H](CC(N)=O)NC(=O)[C@@H]3CCCN3C(=O)[C@H](CC(=O)O)NC(=O)[C@@H]3CSSC[C@H](NC(=O)[C@H](C(C)C)NC(=O)[C@H](Cc4ccc(O)cc4)NC(=O)CNC(=O)[C@H](CCC(=O)O)NC(=O)[C@H](CSSC[C@H](NC(=O)[C@H](CC(=O)O)NC(=O)CN)C(=O)N[C@@H](CC(C)C)C(=O)NCC(=O)N[C@@H](Cc4c[nH]c5ccccc45)C(=O)N[C@@H](C)C(=O)N[C@@H](CO)C(=O)NCC(=O)N3)NC2=O)C(=O)N[C@@H](Cc2c[nH]cn2)C(=O)N[C@@H](Cc2c[nH]c3ccccc23)C(=O)N[C@@H](CCCCN)C(=O)N[C@@H](Cc2ccc(O)cc2)C(=O)N2CCC[C@H]2C(=O)N[C@@H](Cc2c[nH]c3ccccc23)C(=O)N1)C(=O)O [F6A] (H-GDCLGWASGCDPNNNKCCEGYVCHWKYPWCRYDL-OH; disulfide 3-18, 10-23, 17-30 (inferred); N-terminus and C-terminus assumed)",> 1,> 1,> 1,≥ 10,≥ 10
CC(C)C[C@H](NC(=O)[C@H](CC(=O)O)NC(=O)[C@H](Cc1ccc(O)cc1)NC(=O)[C@H](CCCNC(=N)N)NC(=O)[C@@H]1CSSC[C@@H]2NC(=O)[C@H](CCCCN)NC(=O)[C@H](CC(N)=O)NC(=O)[C@H](CC(N)=O)NC(=O)[C@H](CC(N)=O)NC(=O)[C@@H]3CCCN3C(=O)[C@H](CC(=O)O)NC(=O)[C@@H]3CSSC[C@H](NC(=O)[C@H](C(C)C)NC(=O)[C@H](Cc4ccc(O)cc4)NC(=O)CNC(=O)[C@H](CCC(=O)O)NC(=O)[C@H](CSSC[C@H](NC(=O)[C@H](CC(=O)O)NC(=O)CN)C(=O)N[C@@H](CC(C)C)C(=O)NCC(=O)N[C@@H](Cc4c[nH]c5ccccc45)C(=O)N[C@@H](Cc4ccccc4)C(=O)N[C@@H](CO)C(=O)NCC(=O)N3)NC2=O)C(=O)N[C@@H](CO)C(=O)N[C@@H](Cc2c[nH]c3ccccc23)C(=O)N[C@@H](CCCCN)C(=O)N[C@@H](Cc2ccc(O)cc2)C(=O)N2CCC[C@H]2C(=O)N[C@@H](Cc2c[nH]c3ccccc23)C(=O)N1)C(=O)O [H23S],0.198,0.679,0.156,,
"CC(C)C[C@H](NC(=O)[C@H](CC(=O)O)NC(=O)[C@H](Cc1ccc(O)cc1)NC(=O)[C@H](CCCNC(=N)N)NC(=O)[C@@H]1CSSC[C@@H]2NC(=O)[C@H](CCCCN)NC(=O)[C@H](CC(N)=O)NC(=O)[C@H](CC(N)=O)NC(=O)[C@H](CC(N)=O)NC(=O)[C@@H]3CCCN3C(=O)[C@H](CC(=O)O)NC(=O)[C@@H]3CSSC[C@H](NC(=O)[C@H](C(C)C)NC(=O)[C@H](Cc4ccc(O)cc4)NC(=O)CNC(=O)[C@H](CCC(=O)O)NC(=O)[C@H](CSSC[C@H](NC(=O)[C@H](CC(=O)O)NC(=O)CN)C(=O)N[C@@H](CC(C)C)C(=O)NCC(=O)N[C@@H](Cc4c[nH]c5ccccc45)C(=O)N[C@@H](Cc4ccccc4)C(=O)N[C@@H](CO)C(=O)NCC(=O)N3)NC2=O)C(=O)N[C@@H](Cc2c[nH]cn2)C(=O)N[C@@H](Cc2c[nH]c3ccccc23)C(=O)N[C@@H](CCCCN)C(=O)N[C@@H](Cc2ccc(O)cc2)C(=O)N2CCC[C@H]2C(=O)N[C@@H](CCCCN)C(=O)N1)C(=O)O [W28K] (H-GDCLGWFSGCDPNNNKCCEGYVCHWKYPKCRYDL-OH; disulfide 3-18, 10-23, 17-30 (inferred); N-terminus and C-terminus assumed)",> 3,> 3,> 3,,
